These results are taken from US7323461B2, “Use of methylene blue and related compounds to prevent or reverse an exaggerated hemodynamic reaction” (Montreal Heart Institute, priority 2002, dated 2008).

A short description of data set [1]: Hemodynamic effects of methylene blue on hypotensive pigs (LCX artery occluded, sildenafil citrate plus nitroglycerin). Conditions: LCX balloon occlusion, 100 mg sildenafil citrate via esophagus tube, 0.2 mg nitroglycerin i.v. bolus along with MB bolus 3 mg/kg. The class given is in vivo, pig. Here is the method: (§1) Pigs weighing between 20 and 25 kg were anesthetized in accordance with the standard procedure of the Canadian Council on Animal Care Regulations. After baseline hemodynamic measurements, the left circumflex (LCX) artery was occluded using a catheter balloon so as to mimic the condition of patients with cardiovascular disease. As soon as the animal was stable, a bolus injection of nitroglycerin (0.2 mg) was given intravenously in order to observe the effect of nitroglycerin alone on the animal. The animal's blood pressure was allowed to return to normal, and the animal was given 100 mg of sildenafil citrate via an esophagus tube. One hour after the administration of sildenafil citrate, a bolus injection of 0.2 mg of nitroglycerin was given to the animal in order to observe the combined effect of […] and nitroglycerin on the animal. When the animal's blood pressure returned to normal, a second 0.2 mg bolus injection of nitroglycerin was given along with a bolus of MB (3 mg/kg). Blood pressure and heart rate were monitored throughout the procedure.

Data set [2] is described as follows: Hemodynamic effects of methylene blue on hypotensive dogs (same procedure as for pigs). Conditions: same procedure as pigs: sildenafil citrate, nitroglycerin bolus. The data set is classed as in vivo, dog. Here is the method:
as §1
The procedure used was the same as that for pigs. (See EXAMPLE 1, above.) The experiments were conducted on dogs to see what effect the combination of a phosphodiesterase inhibitor and an organic nitrate would have on an animal with a greater number of collaterals than the pig. […]

The conditions of data set [3]: humans, dosages above 2 mg/kg; cited from earlier work.

“Also recorded” adds a separate entry of the source.

As to `CN(C)c1ccc2nc3ccc(N(C)C)cc3[s+]c2c1.[Cl-]` [MB, 3,7-bis(dimethylamino)phenothiazin-5-ium chloride], the “changes in time in systolic blood pressure after nitroglycerin injection with MB” value is “Pressure recovery was much more rapid in the presence of MB; also recorded: beneficial effects of MB may be seen; also recorded: effectiveness of MB in increasing the blood pressure” in data set [1]; “A drop in blood pressure is less pronounced, and there is more rapid recovery time, than without MB; also recorded: MB effectively increased the blood pressure in the animals tested” in data set [2]. For the same compound, in data set [3], the “respiratory problems at high dosage” value is reported as “can lead to respiratory problems in humans”.
